Experimental data: PubChem BioAssay AID1919008 (Molecular Pharmacology Branch, DTP, NCI, 2023)

Tested on: DMS-114 complex spheroids with HUVEC/MSC, growth % test/control
Experiment: Anticancer human tumor DMS-114 cell line growth inhibition [AhR];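 also: spheroids exposed to agents for 7 days before readout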;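 as to viability, T/C: 100% = DMSO vehicle control wells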
Conditions: for IC50: curve of first compound; for viability, T/C: stronger effect = lower value; active = viability on the fitted dose curve at most 10% of control; inactive = the rest
Excerpt: Multicellular complex tumor spheroid response to aryl hydrocarbon receptor antagonists in combination with a variety of drugs and investigational agents in selected tumor cell lines
The current study was undertaken to assess response to aryl hydrocarbon receptor antagonists in combination with standard-of-care drugs and investigational agents in solid tumor complex spheroid models. Complex spheroids include a stromal component modeled by human endothelial cells (HUVEC) and fibroblasts modeled by human mesenchymal stem cells (MSCs). The concentration ranges selected for each drug and investigational agent were based upon clinically achievable concentrations if the clinical Cmax of the agent was known.
Compounds. The drugs and investigational agents: BAY 2416964 (NSC825713), GNF351 (NSC835774), CH-223191 (NSC835775), CPI-455 (NSC825282), aza-TdCyd (NSC777586), decitabine (NSC127716), belinostat (NSC758774), entinostat (NSC756642), pevonedistat (NSC761192), tazemetostat (NSC777109), talazoparib (NSC765396), olaparib (NSC753686), selinexor (NSC780203), nedisertib (M3814, NSC802822), bortezomib (NSC756655), venetoclax (NSC766270), doxorubicin (NSC123127), elimusertib (BAY189344, NSC800525), ceralasertib (AZD6738, NSC777638), TAK-243 (NSC785004), alisertib (NSC759677), etoposide (NSC141540), topotecan (NSC609699), eribulin (NSC707389), gemcitabine (NSC613327), carboplatin (NSC241240), cisplatin (NSC119875), and SN-38 (NSC673596) were obtained from the National Cancer Institute (NCI) Developmental Therapeutics Program Chemical Repository (32). The FDA-approved anticancer drug set is available from the Developmental Therapeutics Program at https://dtp.cancer.gov/organization/dscb/obtaining/available plates.htm. […] The stock solutions were prepared in dimethyl sulfoxide (DMSO, Sigma-Aldrich, St. Louis, MO, cat. D2650), except for the platinum compounds which were prepared in saline (Quality Biological, Gaithersburg, MD, cat. 114-055-101), at 800-fold the tested concentration and stored at -70 degrees C prior to their use. All drugs and investigational agents were tested over a range starting from a high concentration at or near the clinical Cmax and decreasing in half-log increments. If the clinical Cmax for an agent had not been determined, the highest concentration tested was 10 microM (Table 1).
Cell Culture. All cells were maintained in an incubator at 37 degrees C and 5% CO2 with 95% humidity. The PDC lines were cultured according to standard operating procedures established by the NCI PDMR (https://pdmr.cancer.gov). Briefly, all PDCs were thawed and cultured in Matrigel-coated flasks prepared with a working solution of 1X Ham's F-12 nutrient mix, without supplementation (Invitrogen, Waltham, MA, cat. 11765054), 100 U/mL penicillin-streptomycin (Invitrogen, cat. 15140122), and 2.5% Matrigel (Corning Inc., Corning, NY, cat. 354248) for the first three passages. All PDCs were cultured in complete DMEM/F-12 media containing advanced DMEM/F-12 (Invitrogen, cat. 12634028), 4.9% defined fetal bovine serum, heat inactivated (HyClone Laboratories Inc., Logan, UT, cat. SH30070.03HI), 389 ng/mL hydrocortisone (Sigma-Aldrich, cat. H4001), 9.7 ng/mL human EGF recombinant protein (Invitrogen, cat. PHG0313), 23.4 microg/mL adenine (Sigma-Aldrich, cat. A2786), 97.3 U/mL penicillin-streptomycin (Invitrogen, cat. 15140122), 1.9 mM L-glutamine (Invitrogen, cat. 25030081), and 9.7 microM Y-27632 dihydrochloride (Tocris Bioscience, Bristol, United Kingdom, cat. 1254). The PDCs were cultured in complete DMEM/F12 media without 10 microM Y-27632 dihydrochloride for at least two passages prior to the screen. The established cell lines NCI-H1341 and […] were cultured in DMEM/F-12, HEPES (Invitrogen, cat. 11330032), 5% defined fetal bovine serum (HyClone Laboratories Inc., cat. SH30070.03), ITS premix universal culture supplement [insulin (5 microg/mL), transferrin (5 microg/mL), and selenious acid (5 ng/mL)] […]

[1] = second compound 0.1 µM, first compound 0.0316 µM
[2] = second compound 0.1 µM, first compound 0.1 µM
[3] = second compound 0.1 µM, first compound 0.316 µM
[4] = second compound 0.1 µM, first compound 1 µM
[5] = second compound 0.1 µM, first compound 3.16 µM
[6] = second compound 0.1 µM, first compound 10 µM
[7] = second compound 0.316 µM, first compound 0.0316 µM
[8] = second compound 0.316 µM, first compound 0.1 µM
[9] = second compound 0.316 µM, first compound 0.316 µM
[10] = second compound 0.316 µM, first compound 1 µM
[11] = second compound 0.316 µM, first compound 3.16 µM
[12] = second compound 0.316 µM, first compound 10 µM
[13] = second compound 1 µM, first compound 0.0316 µM
[14] = second compound 1 µM, first compound 0.1 µM
[15] = second compound 1 µM, first compound 0.316 µM
[16] = second compound 1 µM, first compound 1 µM
[17] = second compound 1 µM, first compound 3.16 µM
[18] = second compound 1 µM, first compound 10 µM
[19] = second compound 3.16 µM, first compound 0.0316 µM
[20] = second compound 3.16 µM, first compound 0.1 µM
[21] = second compound 3.16 µM, first compound 0.316 µM
[22] = second compound 3.16 µM, first compound 1 µM
[23] = second compound 3.16 µM, first compound 3.16 µM
[24] = second compound 3.16 µM, first compound 10 µM
[25] = second compound 10 µM, first compound 0.0316 µM
[26] = second compound 10 µM, first compound 0.1 µM
[27] = second compound 10 µM, first compound 0.316 µM
[28] = second compound 10 µM, first compound 1 µM
[29] = second compound 10 µM, first compound 3.16 µM
[30] = second compound 10 µM, first compound 10 µM

COc1cc(Nc2ncc3c(n2)-c2ccc(Cl)cc2C(c2c(F)cccc2OC)=NC3)ccc1C(=O)O + CC(CO)NC(=O)c1cc(-c2ccc(Cl)cc2)nn(-c2cnn(C)c2)c1=O
< 0.0316 µM: IC50 (second compound 0.1 µM) | IC50 (second compound 0.316 µM) | IC50 (second compound 1 µM) | IC50 (second compound 3.16 µM) | IC50 (second compound 10 µM)
inactive: viability, T/C [1] 24.8% | viability, T/C [2] 25.1% | viability, T/C [3] 63.5% | viability, T/C [4] 53.1% | viability, T/C [5] 69.2% | viability, T/C [6] 54.8% | viability, T/C [7] 28.4% | viability, T/C [8] 25.6% | viability, T/C [9] 58% | viability, T/C [10] 72% | viability, T/C [11] 63.7% | viability, T/C [12] 65.5% | viability, T/C [13] 25.8% | viability, T/C [14] 23.3% | viability, T/C [15] 63.6% | viability, T/C [16] 58.3% | viability, T/C [17] 61.4% | viability, T/C [18] 59.8% | viability, T/C [19] 26.2% | viability, T/C [20] 21.2% | viability, T/C [21] 65.6% | viability, T/C [22] 62.3% | viability, T/C [23] 73.6% | viability, T/C [24] 64.6% | viability, T/C [25] 25.6% | viability, T/C [26] 24.2% | viability, T/C [27] 50.6% | viability, T/C [28] 61.5% | viability, T/C [29] 58.9% | viability, T/C [30] 66.9%

Cn1ncnc1C1c2n[nH]c(=O)c3cc(F)cc(c23)NC1c1ccc(F)cc1 (stereo not given) + CC(CO)NC(=O)c1cc(-c2ccc(Cl)cc2)nn(-c2cnn(C)c2)c1=O
> 0.1 µM: IC50 (second compound 0.1 µM) | IC50 (second compound 0.316 µM) | IC50 (second compound 1 µM) | IC50 (second compound 3.16 µM) | IC50 (second compound 10 µM)
inactive: viability, T/C (second compound 0.1 µM, first compound 0.000316 µM) 103% | viability, T/C (second compound 0.1 µM, first compound 0.001 µM) 95% | viability, T/C (second compound 0.1 µM, first compound 0.00316 µM) 101% | viability, T/C (second compound 0.1 µM, first compound 0.01 µM) 102% | viability, T/C [1] 97.2% | viability, T/C [2] 82% | viability, T/C (second compound 0.316 µM, first compound 0.000316 µM) 105% | viability, T/C (second compound 0.316 µM, first compound 0.001 µM) 95.5% | viability, T/C (second compound 0.316 µM, first compound 0.00316 µM) 103% | viability, T/C (second compound 0.316 µM, first compound 0.01 µM) 84.7% | viability, T/C [7] 82% | viability, T/C [8] 84.1% | viability, T/C (second compound 1 µM, first compound 0.000316 µM) 103% | viability, T/C (second compound 1 µM, first compound 0.001 µM) 116% | viability, T/C (second compound 1 µM, first compound 0.00316 µM) 109% | viability, T/C (second compound 1 µM, first compound 0.01 µM) 92.1% | viability, T/C [13] 84% | viability, T/C [14] 101% | viability, T/C (second compound 3.16 µM, first compound 0.000316 µM) 107% | viability, T/C (second compound 3.16 µM, first compound 0.001 µM) 105% | viability, T/C (second compound 3.16 µM, first compound 0.00316 µM) 109% | viability, T/C (second compound 3.16 µM, first compound 0.01 µM) 96.4% | viability, T/C [19] 94.8% | viability, T/C [20] 85.7% | viability, T/C (second compound 10 µM, first compound 0.000316 µM) 94.3% | viability, T/C (second compound 10 µM, first compound 0.001 µM) 106% | viability, T/C (second compound 10 µM, first compound 0.00316 µM) 104% | viability, T/C (second compound 10 µM, first compound 0.01 µM) 98.8% | viability, T/C [25] 78.1% | viability, T/C [26] 72.2%

NS(=O)(=O)OCC1CC(n2ccc3c(NC4CCc5ccccc54)ncnc32)CC1O (stereo not given) + CC(CO)NC(=O)c1cc(-c2ccc(Cl)cc2)nn(-c2cnn(C)c2)c1=O
0.0333 µM: IC50 (second compound 3.16 µM)
active: viability, T/C [5] 7.57% | viability, T/C [6] 6.46% | viability, T/C [11] 8.09% | viability, T/C [12] 6.7% | viability, T/C [16] 12.2% | viability, T/C [17] 7.56% | viability, T/C [18] 7.46% | viability, T/C [23] 8.81% | viability, T/C [24] 6.82% | viability, T/C [29] 8.39% | viability, T/C [30] 8.61%
inactive: viability, T/C [1] 39.8% | viability, T/C [2] 35.6% | viability, T/C [3] 16% | viability, T/C [4] 11% | viability, T/C [7] 53.4% | viability, T/C [8] 32.2% | viability, T/C [9] 17.7% | viability, T/C [10] 9.64% | viability, T/C [13] 47.9% | viability, T/C [14] 35.5% | viability, T/C [15] 16.3% | viability, T/C [19] 50.6% | viability, T/C [20] 34.8% | viability, T/C [21] 17.8% | viability, T/C [22] 11.7% | viability, T/C [25] 49.4% | viability, T/C [26] 40% | viability, T/C [27] 18.3% | viability, T/C [28] 10.8%
< 0.0316 µM: IC50 (second compound 0.1 µM) | IC50 (second compound 1 µM) | IC50 (second compound 10 µM)
0.0381 µM: IC50 (second compound 0.316 µM)

O=C(C=Cc1cccc(S(=O)(=O)Nc2ccccc2)c1)NO + CC(CO)NC(=O)c1cc(-c2ccc(Cl)cc2)nn(-c2cnn(C)c2)c1=O
0.482 µM: IC50 (second compound 10 µM)
inactive: viability, T/C [1] 75.9% | viability, T/C [2] 77.6% | viability, T/C [3] 55.1% | viability, T/C [4] 27.2% | viability, T/C [5] 13.3% | viability, T/C [6] 11.9% | viability, T/C [7] 77.6% | viability, T/C [8] 78.3% | viability, T/C [9] 53.2% | viability, T/C [10] 26.2% | viability, T/C [11] 11.3% | viability, T/C [12] 12.4% | viability, T/C [13] 84.6% | viability, T/C [14] 81.2% | viability, T/C [15] 61.1% | viability, T/C [16] 26.9% | viability, T/C [17] 11.1% | viability, T/C [18] 13.5% | viability, T/C [19] 82% | viability, T/C [20] 76.9% | viability, T/C [21] 68.1% | viability, T/C [22] 29.9% | viability, T/C [23] 12.4% | viability, T/C [24] 12.3% | viability, T/C [25] 90.6% | viability, T/C [26] 68.2% | viability, T/C [27] 64.6% | viability, T/C [28] 35% | viability, T/C [29] 13.8% | viability, T/C [30] 14.5%
0.543 µM: IC50 (second compound 3.16 µM)
0.459 µM: IC50 (second compound 1 µM)
0.406 µM: IC50 (second compound 0.1 µM)
0.381 µM: IC50 (second compound 0.316 µM)
